Data: patent US20260297092A1, “PYRAZOLOPYRIMIDINE DERIVATIVES AS INHIBITORS OF NLRP3” (Takeda Pharmaceutical Company Limited, priority 2023, published 2026)

Experiments:
[1] = system: NLRP3 inflammasome (IL-1β production in THP-1 cells); assay: IL-1β TR-FRET Assay (percentage of inhibition at 300 nM, 6 μM or 10 μM); type: cell-based, human; details: Homo sapiens, LPS priming, ATP activation; for inhibition at 0.3 µM: THP-1, 300 nM, read-out: IL-1β inhibitory rate at 300 nM (%); for inhibition at 6 µM: THP-1, 6 μM, read-out: IL-1β inhibitory rate at 6 μM (%)
Method in brief: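 Percent inhibition of IL-1β used DMSO wells as 0% and 3 μM MCC-950 wells as full inhibition, with supernatant read by HTRF. Beforehand, IFN-γ-differentiated (25 ng/mL, 24 h), LPS-primed (50 ng/mL, 24 h) THP-1 cells received compound 30 min before inflammasome activation by 20 mM ATP for 2 h.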

[2] = system: TNF-α (NF-κB pathway, THP-1 cells); assay: TNF-α Assay (IC50); type: cell-based, human; details: Homo sapiens, 600 ng/mL LPS, 3 hours
Method in brief: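 Supernatant TNF-α quantified by ELISA after 3 h stimulation with 600 ng/mL LPS at 37 °C, following 30 min compound preincubation. Cells: IFN-differentiated (25 ng/mL, 24 h) THP-1 macrophages, 40,000/well, serum-free. IC50 by sigmoidal fit of % inhibition, with TPCA-1 as 100% control.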

| Structure (SMILES) | IC50 [2] | inhibition at 0.3 µM [1] | inhibition at 6 µM [1] |
| --- | --- | --- | --- |
| COCCOc1nc2nn(-c3c(C)cc(C4CC4)cc3C)cc2c(=O)[nH]1 [Example 194, 2-(4-cyclopropyl-2,6-dimethylphenyl)-6-(2-methoxyethoxy)-2,5-dihydro-4H-pyrazolo[3,4-d]pyrimidin-4-one] | > 30 µM | 100% |  |
| CCOc1nc2nn(-c3c(C)cc(OC(F)F)cc3C(F)F)cc2c(=O)[nH]1 [Example 195, 2-[4-(difluoromethoxy)-2-(difluoromethyl)-6-methylphenyl]-6-ethoxy-2,5-dihydro-4H-pyrazolo[3,4-d]pyrimidin-4-one] | > 30 µM | 101% |  |
| Cc1cc(C2CC2)cc(C)c1-n1cc2c(=O)[nH]c(C3CCOCC3)nc2n1 [Example 198, 2-(4-cyclopropyl-2,6-dimethylphenyl)-6-(oxan-4-yl)-2,5-dihydro-4H-pyrazolo[3,4-d]pyrimidin-4-one] | > 30 µM | 95% |  |
| Cc1ccc(-n2cc3c(=O)[nH]c(OC4CC5(COC5)C4)nc3n2)c(C)c1 [Example 199, 2-(2,4-dimethylphenyl)-6-[(2-oxaspiro[3.3]heptan-6-yl)oxy]-2,5-dihydro-4H-pyrazolo[3,4-d]pyrimidin-4-one] | > 30 µM | 52% |  |
| CO[C@H](C)COc1nc2nn(-c3c(F)cc(C4CC4)cc3C(F)F)cc2c(=O)[nH]1 [Example 200, 2-[4-cyclopropyl-2-(difluoromethyl)-6-fluorophenyl]-6-[(2R)-2-methoxypropoxy]-2,5-dihydro-4H-pyrazolo[3,4-d]pyrimidin-4-one] | > 30 µM | 98% |  |
| Cc1cc(C2CC2)cc(C)c1-n1cc2c(=O)[nH]c(COC(F)(F)F)nc2n1 [Example 202, 2-(4-cyclopropyl-2,6-dimethylphenyl)-6-[(trifluoro-methoxy)methyl]-2,5-dihydro-4H-pyrazolo[3,4-d]pyrimidin-4-one] | > 30 µM | 97% |  |
| CO[C@@H](C)COc1nc2nn(-c3c(F)cc(C4CC4)cc3C(F)F)cc2c(=O)[nH]1 [Example 203, 2-[4-cyclopropyl-2-(difluoromethyl)-6-fluorophenyl]-6-[(2S)-2-methoxypropoxy]-2,5-dihydro-4H-pyrazolo[3,4-d]pyrimidin-4-one] | > 30 µM | 99% |  |
| COc1nc2nn(-c3c(F)cc(C4(F)CC4)cc3Br)cc2c(=O)[nH]1 [Example 204, 2-[2-bromo-6-fluoro-4-(1-fluorocyclopropyl)phenyl]-6-methoxy-2,5-dihydro-4H-pyrazolo[3,4-d]pyrimidin-4-one] | > 30 µM | 98% |  |
| COC[C@H](C)Oc1nc2nn(-c3c(F)cc(C4CC4)cc3C(F)F)cc2c(=O)[nH]1 [Example 205, 2-[4-cyclopropyl-2-(difluoromethyl)-6-fluorophenyl]-6-{[(2S)-1-methoxypropan-2-yl]oxy}-2,5-dihydro-4H-pyrazolo[3,4-d]pyrimidin-4-one] | > 30 µM | 95% |  |
| COC[C@@H](C)Oc1nc2nn(-c3c(F)cc(C4CC4)cc3C(F)F)cc2c(=O)[nH]1 [Example 207, 2-[4-cyclopropyl-2-(difluoromethyl)-6-fluoro-phenyl]-6-{[(2R)-1-methoxypropan-2-yl]oxy}-2,5-dihydro-4H-pyrazolo[3,4-d]pyrimidin-4-one] | > 30 µM | 98% |  |
| COc1nc2nn(-c3c(C)cc(C4(F)CC4)cc3F)cc2c(=O)[nH]1 [Example 208, 2-[2-fluoro-4-(1-fluorocyclopropyl)-6-methylphenyl]-6-methoxy-2,5-dihydro-4H-pyrazolo[3,4-d]pyrimidin-4-one] | > 30 µM | 102% |  |
| Cc1cc(C2CC2)cc(C)c1-n1cc2c(=O)[nH]c(CC(F)(F)F)nc2n1 [Example 211, 2-(4-cyclopropyl-2,6-dimethylphenyl)-6-(2,2,2-trifluoroethyl)-2,5-dihydro-4H-pyrazolo[3,4-d]pyrimidin-4-one] | > 30 µM | 107% |  |
| CCOc1nc2nn(-c3c(C)cc(Br)cc3C(F)F)cc2c(=O)[nH]1 [Example 213, 2-[4-bromo-2-(difluoromethyl)-6-methylphenyl]-6-ethoxy-2,5-dihydro-4H-pyrazolo[3,4-d]pyrimidin-4-one] | > 30 µM | 104% |  |
| COc1nc2nn(-c3c(C)cc(Br)cc3C(F)F)cc2c(=O)[nH]1 [Example 214, 2-[4-bromo-2-(difluoromethyl)-6-methylphenyl]-6-methoxy-2,5-dihydro-4H-pyrazolo[3,4-d]pyrimidin-4-one] | > 30 µM | 107% |  |
| COCCOc1nc2nn(-c3c(C)cc(Br)cc3C(F)F)cc2c(=O)[nH]1 [Example 215, 2-[4-bromo-2-(difluoromethyl)-6-methylphenyl]-6-(2-methoxyethoxy)-2,5-dihydro-4H-pyrazolo[3,4-d]pyrimidin-4-one] | > 30 µM | 105% |  |
| CCOc1nc2nn(-c3c(C)cc(C4CC4)cc3C(F)F)cc2c(=O)[nH]1 [Example 216, 2-[4-cyclopropyl-2-(difluoromethyl)-6-methylphenyl]-6-ethoxy-2,5-dihydro-4H-pyrazo lo[3,4-d]pyrimidin-4-one] | > 30 µM | 104% |  |
| Cc1cc(C2CC2)cc(C)c1-n1cc2c(=O)[nH]c(-c3cc4n(n3)CCOC4)nc2n1 [Example 218, 2-(4-cyclopropyl-2,6-dimethylphenyl)-6-(6,7-dihydro-4H-pyrazolo[5,1-c][1,4]oxazin-2-yl)-2,5-dihydro-4H-pyrazolo[3,4-d]pyrimidin-4-one] | > 30 µM | 106% |  |
| CCOc1nc2nn(-c3c(C)cc(C4CC4)cc3OC(F)F)cc2c(=O)[nH]1 [Example 222, 2-[4-cyclopropyl-2-(difluoromethoxy)-6-methylphenyl]-6-ethoxy-2,5-dihydro-4H-pyrazolo[3,4-d]pyrimidin-4-one] | > 30 µM | 98% |  |
| Cc1cc(C2CC2)cc(C)c1-n1cc2c(=O)[nH]c(COC(F)F)nc2n1 [Example 224, 2-(4-cyclopropyl-2,6-dimethylphenyl)-6-[(difluoromethoxy)methyl]-2,5-dihydro-4H-pyrazolo[3,4-d]pyrimidin-4-one] | > 30 µM | 104% |  |

Further lines, with some results ahead:

| IC50 [2] | Structure (SMILES) | inhibition at 0.3 µM [1] | inhibition at 6 µM [1] |
| --- | --- | --- | --- |
| > 30 µM | CCOc1nc2nn(-c3c(C)cc(OC(F)F)nc3C)cc2c(=O)[nH]1 [Example 226, 2-[6-(difluoromethoxy)-2,4-dimethylpyridin-3-yl]-6-ethoxy-2,5-dihydro-4H-pyrazolo[3,4-d]pyrimidin-4-one] |  | 106% |
| > 30 µM | Cc1cc(C2CC2)cc(C)c1-n1cc2c(=O)[nH]c(-c3cn(C)nn3)nc2n1 [Example 229, 2-(4-cyclopropyl-2,6-dimethylphenyl)-6-(1-methyl-1H-1,2,3-triazol-4-yl)-2,5-dihydro-4H-pyrazolo[3,4-d]pyrimidin-4-one] | 99% |  |
| > 30 µM | COc1nc2nn(-c3c(C)cc(C4CC4)cc3CC(F)(F)F)cc2c(=O)[nH]1 [Example 230, 2-[4-cyclopropyl-2-methyl-6-(2,2,2-trifluoroethyl)phenyl]-6-methoxy-2,5-dihydro-4H-pyrazolo[3,4-d]pyrimidin-4-one] |  | 93% |
| > 30 µM | COCCOc1nc2nn(-c3c(C)cc(C4CC4)cc3CC(F)(F)F)cc2c(=O)[nH]1 [Example 231, 2-[4-cyclopropyl-2-methyl-6-(2,2,2-trifluoroethyl)phenyl]-6-(2-methoxyethoxy)-2,5-dihydro-4H-pyrazolo[3,4-d]pyrimidin-4-one] |  | 90% |
| > 30 µM | COc1nc2nn(-c3c(C)cc(C4(F)CC4)cc3C)cc2c(=O)[nH]1 [Example 235, 2-[4-(1-fluorocyclopropyl)-2,6-dimethylphenyl]-6-methoxy-2,5-dihydro-4H-pyrazolo[3,4-d]pyrimidin-4-one] |  | 105% |
| > 30 µM | CCc1nc2nn(-c3c(C)cc(C4CC4)cc3C)cc2c(=O)[nH]1 [Example 241, 2-(4-cyclopropyl-2,6-dimethylphenyl)-6-ethyl-2,5-dihydro-4H-pyrazolo[3,4-d]pyrimidin-4-one] |  | 101% |
| > 30 µM | CCOc1nc2nn(-c3c(C)cc(C4(F)CC4)cc3C)cc2c(=O)[nH]1 [Example 245, 6-ethoxy-2-[4-(1-fluorocyclopropyl)-2,6-dimethylphenyl]-2,5-dihydro-4H-pyrazolo[3,4-d]pyrimidin-4-one] |  | 101% |
| > 30 µM | COCCOc1nc2nn(-c3c(C)cc(C4(F)CC4)cc3C)cc2c(=O)[nH]1 [Example 246, 2-[4-(1-fluorocyclopropyl)-2,6-dimethylphenyl]-6-(2-methoxyethoxy)-2,5-dihydro-4H-pyrazolo[3,4-d]pyrimidin-4-one] |  | 101% |
| > 30 µM | Cc1cc(C2CC2)cc(C)c1-n1cc2c(=O)[nH]c([C@@]3(F)CCOC3)nc2n1 [Example 247, 2-(4-cyclopropyl-2,6-dimethylphenyl)-6-(3-fluorooxolan-3-yl)-2,5-dihydro-4H-pyrazolo[3,4-d]pyrimidin-4-one] |  | 100% |
| > 30 µM | Cc1cc(C2CC2)cc(C)c1-n1cc2c(=O)[nH]c([C@H]3C[C@@H](F)C3)nc2n1 [Example 249, 2-(4-cyclopropyl-2,6-dimethylphenyl)-6-[(1s,3s)-3-fluorocyclobutyl]-2,5-dihydro-4H-pyrazolo[3,4-d]pyrimidin-4-one] |  | 98% |
